Assay results reported in paper PMC7114241 (Antiviral Research, 2011).

Target: SARS-CoV M^pro (Severe acute respiratory syndrome coronavirus, UniProt P0C6X7)
Type: biochemical

Dabcyl-KTSAVLQ↓SGFRKME-Edans amide
apparent k cat/K m: 2359 M^−1·19 s^−1 | k cat/K m: 7863 M⁻¹ s⁻¹ | K m (pH 7.3): 24.5 µM
